In patent EP1377579B1 (Aventis Pharmaceuticals Inc., priority 2000, dated 2002):
Counter-ions that a name gives are not always drawn.

Legend:
[1] = molecular target: cdk2/cyclin E (Homo sapiens, UniProt P24941); assay: Cyclin-dependent kinase assay, cdk2/cyclin E; conditions: CDK2 IC50, nM, GST-pRb substrate, 10 µM ATP
[2] = system: MDA-MB-435; assay: In vitro proliferation assay (MTT), MDA-MB-435; assay type: cell-based, human; conditions: Homo sapiens, MDA-MB-435, MTT assay; value (SD, n) where given; read-out: MB-435 Breast (IC50 µM)
Description: (§1) The proliferation of tumor cells can be measured using a tetrazolium salt-based assay known as the MTT (3-[4,5-Dimethylthiazol-2-yl]-2,5-diphenyltetrazolium bromide) assay. […] For the assay, the cell lines are plated onto 96 well plates at 1000 to 2500 cells/well (depending on the properties of the individual cell lines), left to attach and recover overnight. […] After 3 days, the cells are incubated with MTT dye (3-[4,5-Dimethylthiazol-2-yl]-2,5-diphenyltetrazolium bromide, Sigma # M5655, 10 mg/ml in Hank's Buffered Saline) to estimate the amount of live cells remaining vs. concentration for the test compounds. […] The MTT and culture medium is then removed from the cultures and 200 µl of DMSO is added to solubilize the dye from the cell layer. The absorbance at 570 nm is determined for each culture using a Spectramax plate reader (Molecular Devices).
(§2) IC50s were determined from the raw data from either the MTT or SRB assays.
(§3) All of the cell lines were obtained from American Type Tissue Collection, with the ATCC accession number in parentheticals. MCF-7 and MDA-MB-231 cells were grown in improved minimum essential medium (Biofluids) without phenol red, supplemented with 5 % fetal bovine serum, 0.01 mg/ml gentamicin and 3 mM L-glutamine.

[3] = molecular target: cdk1/cyclin B (Homo sapiens, UniProt P06493); assay: Cyclin-dependent kinase assay, cdk1/cyclin B; conditions: CDK1 IC50, nM, Histone H1, 10 µM ATP
Sequence of cdk1/cyclin B (P06493 whole entry): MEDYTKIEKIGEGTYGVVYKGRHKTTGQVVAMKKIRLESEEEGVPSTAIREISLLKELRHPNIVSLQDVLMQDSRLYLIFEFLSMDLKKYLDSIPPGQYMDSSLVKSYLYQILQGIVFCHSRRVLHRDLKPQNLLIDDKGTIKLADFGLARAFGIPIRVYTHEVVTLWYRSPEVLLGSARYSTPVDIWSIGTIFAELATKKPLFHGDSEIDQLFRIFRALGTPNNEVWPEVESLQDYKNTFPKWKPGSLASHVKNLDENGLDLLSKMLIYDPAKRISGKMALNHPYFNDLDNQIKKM
Sequence of cdk1/cyclin B (P14635 whole entry partner): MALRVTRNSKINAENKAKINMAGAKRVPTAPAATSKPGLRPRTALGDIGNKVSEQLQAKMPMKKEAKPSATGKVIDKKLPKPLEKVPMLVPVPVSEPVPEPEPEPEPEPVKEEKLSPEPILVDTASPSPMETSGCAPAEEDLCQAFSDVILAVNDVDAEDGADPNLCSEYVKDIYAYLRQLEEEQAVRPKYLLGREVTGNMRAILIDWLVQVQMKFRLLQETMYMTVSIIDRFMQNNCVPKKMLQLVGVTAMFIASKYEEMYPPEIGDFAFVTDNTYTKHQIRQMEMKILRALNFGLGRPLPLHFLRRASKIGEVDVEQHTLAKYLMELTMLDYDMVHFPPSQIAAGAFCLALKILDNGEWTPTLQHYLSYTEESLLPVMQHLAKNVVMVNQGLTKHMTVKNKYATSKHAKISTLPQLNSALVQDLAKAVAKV

[4] = molecular target: cdk4/cyclin D1 (Homo sapiens, UniProt P11802); assay: Cyclin-dependent kinase assay, cdk4/cyclin D1; assay type: biochemical; conditions: cyclin D1/cdk4; GST-pRb substrate, 10 µM ATP
Sequence of cdk4/cyclin D1 (P11802 whole entry): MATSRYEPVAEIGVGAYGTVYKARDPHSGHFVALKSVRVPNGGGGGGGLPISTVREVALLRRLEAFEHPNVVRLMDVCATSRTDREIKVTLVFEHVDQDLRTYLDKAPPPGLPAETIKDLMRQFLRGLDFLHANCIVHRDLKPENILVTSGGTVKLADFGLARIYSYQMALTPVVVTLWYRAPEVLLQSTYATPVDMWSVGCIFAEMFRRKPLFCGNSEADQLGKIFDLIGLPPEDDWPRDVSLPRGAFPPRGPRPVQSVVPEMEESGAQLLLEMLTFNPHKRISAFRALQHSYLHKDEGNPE
Sequence of cdk4/cyclin D1 (P24385 whole entry partner): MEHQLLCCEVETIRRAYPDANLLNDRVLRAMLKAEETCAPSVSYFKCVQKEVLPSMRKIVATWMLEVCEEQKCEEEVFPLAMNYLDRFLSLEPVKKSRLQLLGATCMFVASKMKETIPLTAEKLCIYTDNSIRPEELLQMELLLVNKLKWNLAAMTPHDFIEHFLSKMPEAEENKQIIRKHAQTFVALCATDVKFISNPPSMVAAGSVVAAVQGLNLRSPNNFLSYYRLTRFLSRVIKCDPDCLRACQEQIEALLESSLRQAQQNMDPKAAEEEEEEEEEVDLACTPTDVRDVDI

[5] = system: PC-3; assay: In vitro proliferation assay (MTT), PC-3; assay type: cell-based, human; conditions: Homo sapiens, PC-3, MTT assay; value (SD, n) where given; read-out: PC-3 Prostate (IC50 µM)
Description: as §1, §2, §3

IC50 [1] | IC50 [2] | IC50 [3] | IC50 [4] | IC50 [5] | SMILES
56 nM | 3 µM | 27 nM | 632 nM | 2.4 µM | CCOC(=O)CC(=O)N1CCC(Nc2nc(N[C@H]3CC[C@H](N)CC3)nc3c2ncn3C2CCCC2)CC1 [compound 29, trans-3-{4-[2-(4-Amino-cyclohexylamino)-9-cyclopentyl-9H-purin-6-ylamino]-piperidin-1-yl}-3-oxo-propionic acid ethyl ester dihydrochloride]
53 nM | 5.46 µM | 24 nM | 189 nM | 4.84 µM | COc1ccc(CC(=O)N2CCC(Nc3nc(N[C@H]4CC[C@H](N)CC4)nc4c3ncn4C3CCCC3)CC2)cc1OC [compound 32, trans 1-{4-[2-(4-Amino-cyclohexylamino)-9-cyclopentyl-9H-purin-6-ylamino]-piperidin-1-yl}-2-(3,4-dimethoxy-phenyl)-ethanone dihydrochloride]
55 nM | 1.38 µM | 48 nM | 766 nM | 0.98 µM | C/C=C/C(=O)N1CCC(Nc2nc(N[C@H]3CC[C@H](N)CC3)nc3c2ncn3C2CCCC2)CC1 [compound 35, trans (E)-1-{4-[2-(4-Amino-cyclohexylamino)-9-cyclopentyl-9H-purin-6-ylamino]-piperidin-1-yl}-but-2-en-1-one dihydrochloride]
79 nM | 0.39 µM | 45 nM | 697 nM | 0.39 µM | N[C@H]1CC[C@H](Nc2nc(NC3CCN(C(=O)CCC4CCCC4)CC3)c3ncn(C4CCCC4)c3n2)CC1 [compound 36, trans-1-{4-[2-(4-Amino-cyclohexylamino)-9-cyclopentyl-9H-purin-6-ylamino]-piperidin-1-yl}-3-cyclopentyl-propan-1-one dihydrochloride]
66 nM | 1.28 µM | 27 nM | 703 nM | 1.83 µM | COc1cccc(CC(=O)N2CCC(Nc3nc(N[C@H]4CC[C@H](N)CC4)nc4c3ncn4C3CCCC3)CC2)c1 [compound 38, trans-1-{4-[2-(4-Amino-cyclohexylamino)-9-cyclopentyl-9H-purin-6-ylamino]-piperidin-1-yl}-2-(3-methoxy-phenyl)-ethanone dihydrochloride]
51 nM | 0.51 µM | 66 nM | 664 nM | 0.61 µM | N[C@H]1CC[C@H](Nc2nc(NC3CCN(C(=O)C4CCCC4)CC3)c3ncn(C4CCCC4)c3n2)CC1 [compound 39, trans-1-{4-[2-(4-Amino-cyclohexylamino)-9-cyclopentyl-9H-purin-6-ylamino]-piperidin-1-yl}-1-cyclopentyl-methanone]
61 nM | 0.22 µM | 36 nM | 238 nM | 0.27 µM | N[C@H]1CC[C@H](Nc2nc(NC3CCN(C(=O)C(c4ccccc4)c4ccccc4)CC3)c3ncn(C4CCCC4)c3n2)CC1 [compound 40, trans-1-{4-[2-(4-Amino-cyclohexylamino)-9-cyclopentyl-9H-purin-6-ylamino]-piperidin-1-yl}-2,2-diphenyl-ethanone dihydrochloride]
51 nM | 1.1 µM | 21 nM | 103 nM | 1.06 µM | COc1ccc(CC(=O)N2CCC(Nc3nc(N[C@H]4CC[C@H](N)CC4)nc4c3ncn4C3CCCC3)CC2)cc1 [compound 42, trans-1-{4-[2-(4-Amino-cyclohexylamino)-9-cyclopentyl-9H-purin-6-ylamino]-piperidin-1-yl}-2-(4-methoxy-phenyl)-ethanone dihydrochloride]
14 nM | 1.99 µM | 36 nM | 361 nM | 1.8 µM | C[C@H](O)C(=O)N1CCC(Nc2nc(N[C@H]3CC[C@H](N)CC3)nc3c2ncn3C2CCCC2)CC1 [compound 47, trans-(S)-1-{4-[2-(4-Amino-cyclohexylamino)-9-cyclopentyl-9H-purin-6-ylamino]-piperidin-1-yl}-2-hydroxy-propan-1-one dihydrochloride]
61 nM | 0.75 µM | 48 nM | 503 nM | 0.84 µM | N[C@H]1CC[C@H](Nc2nc(NC3CCN(C(=O)Cc4ccc(F)cc4)CC3)c3ncn(C4CCCC4)c3n2)CC1 [compound 48, trans-1-{4-[2-(4-Amino-cyclohexylamino)-9-cyclopentyl-9H-purin-6-ylamino]-piperidin-1-yl}-2-(4-fluoro-phenyl)-ethanone dihydrochloride]
49 nM | 1.23 µM | 121 nM | 88 nM | 0.92 µM | C=CCCC(=O)N1CCC(Nc2nc(N[C@H]3CC[C@H](N)CC3)nc3c2ncn3C2CCCC2)CC1 [compound 49, trans-1-{4-[2-(4-Amino-cyclohexylamino)-9-cyclopentyl-9H-purin-6-ylamino]-piperidin-1-yl}-pent-4-en-1-one dihydrochloride]
65 nM | 0.42 µM | 109 nM | 99 nM | 0.5 µM | CC(C)(C)CC(=O)N1CCC(Nc2nc(N[C@H]3CC[C@H](N)CC3)nc3c2ncn3C2CCCC2)CC1 [compound 51, trans-1-{4-[2-(4-Amino-cyclohexylamino)-9-cyclopentyl-9H-purin-6-ylamino]-piperidin-1-yl}-3,3-dimethyl-butan-1-one dihydrochloride]
59 nM | 0.87 µM | 40 nM | 350 nM | 0.69 µM | N[C@H]1CC[C@H](Nc2nc(NC3CCN(C(=O)Cc4ccccc4)CC3)c3ncn(C4CCCC4)c3n2)CC1 [compound 52, trans-1-{4-[2-(4-Amino-cyclohexylamino)-9-cyclopentyl-9H-purin-6-ylamino]-piperidin-1-yl}-2-phenyl-ethanone dihydrochloride]
80 nM | 1.17 µM | 40 nM | 934 nM | 0.88 µM | CCC(=O)N1CCC(Nc2nc(N[C@H]3CC[C@H](N)CC3)nc3c2ncn3C2CCCC2)CC1 [compound 53, trans-1-{4-[2-(4-Amino-cyclohexylamino)-9-cyclopentyl-9H-purin-6-ylamino]-piperidin-1-yl}-propan-1-one dihydrochloride]
49 nM | 0.6 µM | 45 nM | 315 nM | 0.59 µM | CCCCCC(=O)N1CCC(Nc2nc(N[C@H]3CC[C@H](N)CC3)nc3c2ncn3C2CCCC2)CC1 [compound 54, trans-1-{4-[2-(4-Amino-cyclohexylamino)-9-cyclopentyl-9H-purin-6-ylamino]-piperidin-1-yl}-hexan-1-one dihydrochloride]
56 nM | 0.41 µM | 99 nM | 621 nM | 0.57 µM | N[C@H]1CC[C@H](Nc2nc(NC3CCN(C(=O)C4CCCCC4)CC3)c3ncn(C4CCCC4)c3n2)CC1 [compound 55, trans-1-{4-[2-(4-Amino-cyclohexylamino)-9-cyclopentyl-9H-purin-6-ylamino]-piperidin-1-yl}-1-cyclohexyl-methanone dihydrochloride]
53 nM | 0.61 µM | 43 nM | 909 nM | 0.69 µM | CCCCC(=O)N1CCC(Nc2nc(N[C@H]3CC[C@H](N)CC3)nc3c2ncn3C2CCCC2)CC1 [compound 56, trans-1-{4-[2-(4-Amino-cyclohexylamino)-9-cyclopentyl-9H-purin-6-ylamino]-piperidin-1-yl}-pentan-1-one dihydrochloride]
68 nM | 1.01 µM | 52 nM | 357 nM | 0.94 µM | CCCC(=O)N1CCC(Nc2nc(N[C@H]3CC[C@H](N)CC3)nc3c2ncn3C2CCCC2)CC1 [compound 58, trans-1-{4-[2-(4-Amino-cyclohexylamino)-9-cyclopentyl-9H-purin-6-ylamino]-piperidin-1-yl}-butan-1-one dihydrochloride]
52 nM | 0.62 µM | 93 nM | 721 nM | 0.96 µM | CC(C)C(=O)N1CCC(Nc2nc(N[C@H]3CC[C@H](N)CC3)nc3c2ncn3C2CCCC2)CC1 [compound 59, trans-1-{4-[2-(4-Amino-cyclohexylamino)-9-cyclopentyl-9H-purin-6-ylamino]-piperidin-1-yl) -2-methyl-propan-1-one dihydrochloride]
37 nM | 0.69 µM | 83 nM | 91 nM | 0.65 µM | CC(C)CC(=O)N1CCC(Nc2nc(N[C@H]3CC[C@H](N)CC3)nc3c2ncn3C2CCCC2)CC1 [compound 60, trans-1-{4-[2-(4-Amino-cyclohexylamino)-9-cyclopentyl-9H-purin-6-ylamino]-piperidin-1-yl}-3-methyl-butan-1-one dihydrochloride]
